According to ChEMBL document CHEMBL5620406, “Synthesis and biological evaluation of novel pyrazole amides as potent mitochondrial complex I inhibitors” (Eur J Med Chem, 2023):
Activity calls are given as the source filed them. The rule behind the calls is not given here.

Key:
HCT-116 [1] = test: Induction of mitochondrial dysfunction in human HCT-116 cells assessed as attenuation of oxygen consumption rate at 2 nM incubated for 24 hrs by Seahorse XFe24 analyzer; assay type: functional, cell-based
HCT-116 [2] = test: Induction of mitochondrial dysfunction in human HCT-116 cells assessed as attenuation of basal oxygen consumption incubated for 24 hrs by Seahorse XFe24 analyzer; assay type: functional, cell-based; conditions: dose 2-10 nM
Cytochrome P450 3A4 = Cytochrome P450 3A4 (Homo sapiens, UniProt P08684); test: Inhibition of CYP3A4 in human liver microsomes incubated for 5 mins in presence of NADPH by LC/MS/MS analysis; assay type: ADME, Microsome
[3] = Toxicity in NOD-SCID mouse xenografted with human KG-1 cells assessed as effect on BILT level at 5 mg/kg, ip qd administered 5 consecutive days per week for 24 days; assay type: organism-based; conditions: in vivo, 576 h, time 24 day
[4] = Toxicity in NOD-SCID mouse xenografted with human KG-1 cells assessed as effect on kidney damage at 5 mg/kg, ip qd administered 5 consecutive days per week for 24 days by H and E staining based analysis; assay type: organism-based; conditions: in vivo, 576 h, time 24 day
HCT-116 [5] = test: Induction of mitochondrial dysfunction in human HCT-116 cells assessed as attenuation of oxygen consumption rate at 10 nM incubated for 24 hrs by Seahorse XFe24 analyzer; assay type: functional, cell-based
[6] = Toxicity in NOD-SCID mouse xenografted with human KG-1 cells assessed as effect on HGB count at 5 mg/kg, ip qd administered 5 consecutive days per week for 24 days; assay type: organism-based; conditions: in vivo, 576 h, time 24 day
[7] = Efflux ratio of apparent permeability across basolateral to apical membrane to apical to basolateral membrane in human Caco-2 cells incubated for 120 mins by LC-MS/MS analysis; assay type: ADME, cell-based
HCT-116 [8] = test: Induction of mitochondrial dysfunction in human HCT-116 cells assessed as attenuation of maximum oxygen consumption rate incubated for 24 hrs by Seahorse XFe24 analyzer; assay type: functional, cell-based; conditions: dose 2-10 nM
[9] = Acute toxicity in BALB/c mouse assessed as decrease in body weight at 68 mg/kg, ip measured for 6 days; assay type: organism-based; conditions: in vivo, 144 h, time 6 day
HCT-116 [10] = test: Induction of ROS generation in human HCT-116 cells measured for 30 mins by DCFDA-staining based flow cytometry analysis; assay type: functional, cell-based; conditions: dose <= 0.5 nM
[11] = Toxicity in NOD-SCID mouse xenografted with human KG-1 cells assessed as effect on lymphocyte count at 5 mg/kg, ip qd administered 5 consecutive days per week for 24 days; assay type: organism-based; conditions: in vivo, 576 h, time 24 day
[12] = Toxicity in NOD-SCID mouse xenografted with human KG-1 cells assessed as effect on HDL level at 5 mg/kg, ip qd administered 5 consecutive days per week for 24 days; assay type: organism-based; conditions: in vivo, 576 h, time 24 day
[13] = Toxicity in NOD-SCID mouse xenografted with human KG-1 cells assessed as effect on GLB level at 5 mg/kg, ip qd administered 5 consecutive days per week for 24 days; assay type: organism-based; conditions: in vivo, 576 h, time 24 day
[14] = Toxicity in NOD-SCID mouse xenografted with human KG-1 cells assessed as effect on MCHC level at 5 mg/kg, ip qd administered 5 consecutive days per week for 24 days; assay type: organism-based; conditions: in vivo, 576 h, time 24 day
Homo sapiens = species: Homo sapiens; test: Inhibition of mitochondrial complex I (unknown origin) at 1 uM incubated for 15 mins by microplate reader analysis relative to control
[15] = Toxicity in NOD-SCID mouse xenografted with human KG-1 cells assessed as effect on LDL level at 5 mg/kg, ip qd administered 5 consecutive days per week for 24 days; assay type: organism-based; conditions: in vivo, 576 h, time 24 day
KG-1 [16] = test: Induction of ROS generation in human KG-1 cells measured for 30 mins by DCFDA-staining based flow cytometry analysis; assay type: functional, cell-based; conditions: dose <= 0.5 nM
[17] = Acute toxicity in BALB/c mouse assessed as effect on ALP level at 68 mg/kg, ip measured on day 14; assay type: organism-based; conditions: in vivo, 336 h, time 14 day
[18] = Acute toxicity in ip dosed BALB/c mouse assessed as maximum tolerated dose measured on day 14; assay type: organism-based; conditions: in vivo, time 14 day
[19] = Toxicity in NOD-SCID mouse xenografted with human KG-1 cells assessed as effect on PLT level at 5 mg/kg, ip qd administered 5 consecutive days per week for 24 days; assay type: organism-based; conditions: in vivo, 576 h, time 24 day
KG-1 [20] = test: Antiproliferative activity against human KG-1 cells assessed as inhibition of cell growth incubated for 96 hrs by MTT assay; assay type: functional, cell-based; conditions: KG-1, 96 h
[21] = Toxicity in NOD-SCID mouse xenografted with human KG-1 cells assessed as effect on UA level at 5 mg/kg, ip qd administered 5 consecutive days per week for 24 days; assay type: organism-based; conditions: in vivo, 576 h, time 24 day
[22] = Toxicity in NOD-SCID mouse xenografted with human KG-1 cells assessed as effect on ALT level at 5 mg/kg, ip qd administered 5 consecutive days per week for 24 days; assay type: organism-based; conditions: in vivo, 576 h, time 24 day
[23] = Toxicity in NOD-SCID mouse xenografted with human KG-1 cells assessed as effect on spleen damage at 5 mg/kg, ip qd administered 5 consecutive days per week for 24 days by H and E staining based analysis; assay type: organism-based; conditions: in vivo, 576 h, time 24 day
[24] = Toxicity in NOD-SCID mouse xenografted with human KG-1 cells assessed as effect on UREA level at 5 mg/kg, ip qd administered 5 consecutive days per week for 24 days; assay type: organism-based; conditions: in vivo, 576 h, time 24 day
HCT-116 [25] = test: Induction of mitochondrial membrane potential depolarization in human HCT-116 cells at 2 nM incubated for 24 hrs by JC-1 staining based flow cytometry analysis; assay type: functional
[26] = Toxicity in NOD-SCID mouse xenografted with human KG-1 cells assessed as effect on hematocrit level at 5 mg/kg, ip qd administered 5 consecutive days per week for 24 days; assay type: organism-based; conditions: in vivo, 576 h, time 24 day
[27] = Toxicity in NOD-SCID mouse xenografted with human KG-1 cells assessed as effect on RBC count at 5 mg/kg, ip qd administered 5 consecutive days per week for 24 days; assay type: organism-based, Erythrocyte; conditions: in vivo, 576 h, time 24 day
[28] = Acute toxicity in BALB/c mouse assessed as decrease in body weight at 40 mg/kg, ip measured for 24 hrs; assay type: organism-based; conditions: in vivo
[29] = Toxicity in NOD-SCID mouse xenografted with human KG-1 cells assessed as effect on neutrophil count at 5 mg/kg, ip qd administered 5 consecutive days per week for 24 days; assay type: organism-based; conditions: in vivo, 576 h, time 24 day
Cytochrome P450 2C9 = Cytochrome P450 2C9 (Homo sapiens, UniProt P11712); test: Inhibition of CYP2C9 in human liver microsomes incubated for 10 mins in presence of NADPH by LC/MS/MS analysis; assay type: ADME, Microsome
[30] = Toxicity in NOD-SCID mouse xenografted with human KG-1 cells assessed as effect on WBC count at 5 mg/kg, ip qd administered 5 consecutive days per week for 24 days; assay type: organism-based; conditions: in vivo, 576 h, time 24 day
[31] = Toxicity in NOD-SCID mouse xenografted with human KG-1 cells assessed as effect on TP level at 5 mg/kg, ip qd administered 5 consecutive days per week for 24 days; assay type: organism-based; conditions: in vivo, 576 h, time 24 day
[32] = Apparent permeability across apical to basolateral side in human Caco-2 cells incubated for 120 mins by LC-MS/MS analysis; assay type: ADME, cell-based
[33] = Toxicity in NOD-SCID mouse xenografted with human KG-1 cells assessed as effect on lung damage at 5 mg/kg, ip qd administered 5 consecutive days per week for 24 days by H and E staining based analysis; assay type: organism-based; conditions: in vivo, 576 h, time 24 day
[34] = Toxicity in NOD-SCID mouse xenografted with human KG-1 cells assessed as change in body weight at 5 mg/kg, ip qd administered 5 consecutive days per week for 24 days; assay type: organism-based; conditions: in vivo, 576 h, time 24 day

Sequence of Cytochrome P450 2C9 (P11712 whole entry): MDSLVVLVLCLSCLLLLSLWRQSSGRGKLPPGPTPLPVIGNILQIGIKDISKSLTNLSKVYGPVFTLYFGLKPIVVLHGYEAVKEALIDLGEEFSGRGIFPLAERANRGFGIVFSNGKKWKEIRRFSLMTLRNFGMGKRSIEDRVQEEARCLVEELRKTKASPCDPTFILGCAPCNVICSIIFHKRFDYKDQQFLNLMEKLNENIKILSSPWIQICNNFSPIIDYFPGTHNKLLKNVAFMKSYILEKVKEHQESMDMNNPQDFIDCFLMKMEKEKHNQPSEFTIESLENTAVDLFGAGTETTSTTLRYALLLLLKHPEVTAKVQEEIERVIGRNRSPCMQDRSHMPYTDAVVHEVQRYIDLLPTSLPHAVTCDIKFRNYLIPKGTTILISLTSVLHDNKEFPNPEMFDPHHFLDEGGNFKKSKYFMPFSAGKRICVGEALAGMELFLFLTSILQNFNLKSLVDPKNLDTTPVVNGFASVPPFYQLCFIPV
Sequence of Cytochrome P450 3A4 (P08684 whole entry): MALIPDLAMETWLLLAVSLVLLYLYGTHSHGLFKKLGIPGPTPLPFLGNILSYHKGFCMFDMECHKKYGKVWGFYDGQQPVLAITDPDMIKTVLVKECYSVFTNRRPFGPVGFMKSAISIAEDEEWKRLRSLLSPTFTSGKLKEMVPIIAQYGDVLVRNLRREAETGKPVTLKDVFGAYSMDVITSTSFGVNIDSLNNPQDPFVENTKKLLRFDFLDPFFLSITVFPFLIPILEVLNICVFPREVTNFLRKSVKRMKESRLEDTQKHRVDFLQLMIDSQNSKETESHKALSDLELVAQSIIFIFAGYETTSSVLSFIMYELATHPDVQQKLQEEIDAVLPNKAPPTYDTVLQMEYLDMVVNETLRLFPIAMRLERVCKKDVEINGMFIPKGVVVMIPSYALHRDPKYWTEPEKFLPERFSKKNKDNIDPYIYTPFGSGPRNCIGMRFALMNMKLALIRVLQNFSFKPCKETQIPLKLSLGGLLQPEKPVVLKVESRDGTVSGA

SMILES	Activity (HCT-116 [1])	Activity (HCT-116 [2])	IC50 (Cytochrome P450 3A4) [nM]	Activity [3]	Activity [4]	Activity (HCT-116 [5])	Activity [6]	efflux ratio at 2 h [7]	Activity (HCT-116 [8])	Activity [9]	Activity (HCT-116 [10])	Activity [11]	Activity [12]	Activity [13]	Activity [14]	inhibition (Homo sapiens) [%]	Activity [15]	Activity (KG-1 [16])	Activity [17]	MTD at 336 h [18] [mg/kg]	other results
Cc1cc(C(=O)Nc2ccc(C(F)(F)F)cc2)nn1Cc1cccc(N2CCN(C(=O)C3CC3)CC2)c1	Active	Dose-Dependent Effect	7480	Non-Toxic	Non-Toxic	Active	Non-Toxic	0.53	Dose-Dependent Effect	Non-Toxic	Dose-Dependent Effect	Non-Toxic	Non-Toxic	Non-Toxic	Non-Toxic	55.4	Non-Toxic	Dose-Dependent Effect	Non-Toxic	~6	Activity [19]: Non-Toxic; IC50 (KG-1 [20]): 3.9 nM; Activity [21]: Non-Toxic; Activity [22]: Non-Toxic; Activity [23]: Non-Toxic; Activity [24]: Non-Toxic; Activity (HCT-116 [25]): 26.5%; Activity [26]: Non-Toxic; Activity [27]: Non-Toxic; Activity [28]: Non-Toxic; Activity [29]: Non-Toxic; IC50 (Cytochrome P450 2C9): 1010 nM; Activity [30]: Non-Toxic; Activity [31]: Non-Toxic; Papp A→B at 2 h [32]: 5.83 ×10⁻⁶ cm/s; Activity [33]: Non-Toxic; Activity [34]: Non-Toxic
Cc1cc(C(=O)Nc2ccc(OC(F)(F)F)cc2)nn1Cc1cccc(N2CCN(C(=O)C3CC3)CC2)c1	Active	Dose-Dependent Effect	6990	Non-Toxic	Non-Toxic	Active	Non-Toxic	0.57	Dose-Dependent Effect	Non-Toxic	Dose-Dependent Effect	Non-Toxic	Non-Toxic	Non-Toxic	Non-Toxic	48.6	Non-Toxic	Dose-Dependent Effect	Non-Toxic	~6	Activity [19]: Non-Toxic; IC50 (KG-1 [20]): 5.81 nM; Activity [21]: Non-Toxic; Activity [22]: Non-Toxic; Activity [23]: Non-Toxic; Activity [24]: Non-Toxic; Activity (HCT-116 [25]): 34.3%; Activity [26]: Non-Toxic; Activity [27]: Non-Toxic; Activity [28]: Non-Toxic; Activity [29]: Non-Toxic; IC50 (Cytochrome P450 2C9): 1830 nM; Activity [30]: Non-Toxic; Activity [31]: Non-Toxic; Papp A→B at 2 h [32]: 5.74 ×10⁻⁶ cm/s; Activity [33]: Non-Toxic; Activity [34]: Non-Toxic
